How the values were obtained:
[1] = system: P. acnes NCTC 737; assay: Disc diffusion assay (DDA); format: cell-based, Propionibacterium acnes; conditions: 200 μg compound per disc; DMSO
Experimental: (§1) The first test micro-organism used was Propionibacterium acnes NCTC 737. This is a propionibacterial strain and is the type strain of the […]; it is fully susceptible to antibiotics.
(§2) The propionibacteria were cultured and maintained on Wilkins-Chalgren Anaerobe Medium (agar and broth) at pH 6.0; all cultures were incubated anaerobically at 37° C. for 72 hours.
This is an internationally recognised standard method for qualitatively assessing the antimicrobial activity of a compound.
A sterile paper disc was impregnated with a sample of the test compound in a suitable solvent and 30 minutes allowed for the solvents to evaporate (where possible). The disc was then placed on an agar plate onto which the test micro-organism had been inoculated. The plate was then incubated under the conditions described above, following which it was examined visually for signs of microbial growth. If the test compound had antimicrobial activity, a circular zone of no growth would be obtained around the disc. The diameter of this zone of “inhibition” was measured using a ProtoCOL™ automated zone sizer (Synbiosis, Cambridge, UK). In general, a greater diameter and/or area of the zone of inhibition indicates a greater antimicrobial activity in the relevant test compound, although other factors such as test compound mobility through the agar gel may also influence the result.
(§3) DDA assays, as described above, were carried out using as the test formulation the gel prepared in Example 2B above. Also tested was the Example 2B gel minus the Klucel™ thickener, which was also subjected to MIC and MBC assays. For the DDAs, which were performed in triplicate, 100 μl of the relevant formulation was loaded onto each disc, and zones of inhibition were recorded after 3 days' anaerobic incubation at 37° C. The MIC and MBC tests were performed in duplicate and the results recorded after 3 days and 7 days respectively, post-subculture onto drug-free medium. […]

[2] = system: P. acnes NCTC 737; assay: Minimum inhibitory concentration (MIC) assay, broth microtitre; format: cell-based, Propionibacterium acnes; conditions: compound in DMSO; triplicate
Experimental: as §1, §2
This is a standard international method for quantitatively assessing the antimicrobial activity of a compound in a liquid medium. The method used a sterile 96-well microtitre plate, capable of holding about 200 μl of liquid per well. The wells contained liquid culture medium and ranges of decreasing concentrations of the relevant test compound in doubling dilutions (eg 1000, 500, 250, 125 . . . μg/ml, etc. down to 0.49 μg/ml). The culture medium was as described above.
The wells were inoculated with a liquid suspension of freshly grown micro-organism and incubated under the conditions described above. After incubation, the microtitre plate was examined visually (with the aid of a light box) for cloudiness in each well, which would indicate microbial growth. The MIC value was recorded as the lowest concentration of test compound required to inhibit microbial growth, ie the lowest concentration for which the liquid in the well remained clear.
The assays included both negative (culture medium with no micro-organisms) and positive (culture medium plus diluting solvent plus micro-organism) controls.
as §3

[3] = system: P. acnes NCTC 737; assay: Minimum bactericidal concentration (MBC) assay; format: cell-based, Propionibacterium acnes; conditions: compound in DMSO; triplicate
Experimental: as §1, §2
(§4) This assay, normally carried out after an MIC assay, determines the minimum concentration of a compound that is lethal to the micro-organism being tested.
These samples were then individually sub-cultured on antibiotic-free agar medium, under the incubation conditions described above. Following incubation they were examined visually for microbial growth.
DDA assays, as described above, were carried out using as the test formulation the gel prepared in Example 2B above. Also tested was the Example 2B gel minus the Klucel™ thickener, which was also subjected to MIC and MBC assays. For the DDAs, which were performed in triplicate, 100 μl of the relevant formulation was loaded onto each disc, and zones of inhibition were recorded after 3 days' anaerobic incubation at 37° C. The MIC and MBC tests were performed in duplicate and the results recorded after 3 days and 7 days respectively, post-subculture onto drug-free medium.
The compounds copper (II) usnate (Just for Today Ltd), sodium usnate (Yick-Vic Chemicals) and usnic acid (Sigma-Aldrich) were tested against P. acnes NCTC 737, using MIC, MBC and DDA assays as described above. For copper usnate and usnic acid, supplemented DDA assays were also carried out. DMSO was used as the solvent for all three test compounds. For the DDAs, 200 μg of the relevant test compound was loaded onto each disc. The MIC and MBC assays were conducted in triplicate, as were the DDAs for copper usnate.

[4] = system: S. aureus ATCC 29213; assay: MIC assay; format: cell-based, Staphylococcus aureus; conditions: Mueller-Hinton broth pH 7.0
Source text: (§5) (a) staphylococci. The Staphylococcus aureus strain used was ATCC 29213. S. aureus and other staphylococci are common causes of a wide range of skin, skin structure and wound infections; S. aureus is also known to exacerbate eczema. The ATCC 29213 strain is known to be susceptible to beta-lactam antibiotics such as methicillin. The Staphylococcus epidermidis strain used was NCTC 11047. Staph. epidermidis forms part of the resident flora of skin and is an opportunistic pathogen which can cause biofilms to grow for instance on plastic surgical implants such as catheters. Unless otherwise stated, the staphylococci were cultured and maintained on Mueller-Hinton Medium (agar and broth) at pH 7.2; cultures were incubated aerobically at 37° C. for 19-20 hours, at pH 7 (±0.2). (b) C. striatum NCTC 764. Corynebacterium striatum is closely related to organisms (aerobic diphtheroids of the genus Corynebacterium) that cause body odour. It was cultured and maintained on Mueller-Hinton medium (agar and broth). All cultures were incubated aerobically at 37° C. for 72 hours, at pH 7 (±0.2). (c) streptococci. The strains tested were S. mutans ATCC 25175 and S. pyogenes ATCC 12344. S. mutans is a Gram-positive, microaerophilic bacterium which plays a significant role in dental caries and in infective endocarditis. […]
(§6) This is a standard international method for quantitatively assessing the antimicrobial activity of a compound in a liquid medium. […]
(§7) The wells were inoculated with a liquid suspension of freshly grown micro-organism and incubated under the conditions described above. […] The MIC value was recorded as the lowest concentration of test compound required to inhibit microbial growth, ie the lowest concentration for which the liquid in the well remained clear. […]
(§8) Example 8 was repeated (except for the supplemented DDA assays), using S. aureus ATCC 29213 as the test organism. […] In the DDA assays, 200 μg is of each compound was loaded onto each disc: the culture medium was Mueller-Hinton agar at pH 7.0, and results were recorded after overnight incubation at 37° C. in air. […]

[5] = system: S. aureus ATCC 29213; assay: MBC assay; format: cell-based, Staphylococcus aureus; conditions: Mueller-Hinton broth pH 7.0
Source text: as §5, with “endocarditis. Streptococcus pyogenes is associated with skin, soft tissue, burn and wound infections. S. mutans was cultured and maintained on Wilkins-Chalgren Anaerobe medium+1 g/L glucose (agar and broth); it was incubated in air at 37° C. for 48 hours, at pH 7 (±0.2) with 5% carbon dioxide. S. pyogenes was cultured and maintained on Mueller-Hinton medium (broth and agar) and was incubated under the same conditions as S. mutans.” for “endocarditis.”
as §8

[6] = system: S. aureus ATCC 29213; assay: Disc diffusion assay (DDA); format: cell-based, Staphylococcus aureus; conditions: 200 μg per disc; Mueller-Hinton agar pH 7.0; overnight at 37° C. in air
Source text: as §5, with “endocarditis. Streptococcus pyogenes is associated with skin, soft tissue, burn and wound infections.” for “endocarditis.”
(§9) A sterile paper disc was impregnated with a sample of the test compound in a suitable solvent and 30 minutes allowed for the solvents to evaporate (where possible). […] The diameter of this zone of “inhibition” was measured using a ProtoCOL™ automated zone sizer (Synbiosis, Cambridge, UK). […]
as §8

[7] = system: C. striatum NCTC 764; assay: MIC assay; format: cell-based, Corynebacterium striatum; conditions: triplicate
Source text: as §5, with “endocarditis. Streptococcus pyogenes is associated with skin, soft tissue, burn and wound infections. S. mutans was cultured and maintained on Wilkins-Chalgren Anaerobe medium+1 g/L glucose (agar and broth); it was incubated in air at 37° C. for 48 hours, at pH 7 (±0.2) with 5% carbon dioxide.” for “endocarditis.”
as §6, §7

[8] = system: C. striatum NCTC 764; assay: MBC assay; format: cell-based, Corynebacterium striatum; conditions: triplicate
Source text: (a) staphylococci. The Staphylococcus aureus strain used was ATCC 29213. S. aureus and other staphylococci are common causes of a wide range of skin, skin structure and wound infections; S. aureus is also known to exacerbate eczema. The ATCC 29213 strain is known to be susceptible to beta-lactam antibiotics such as methicillin. The Staphylococcus epidermidis strain used was NCTC 11047. Staph. epidermidis forms part of the resident flora of skin and is an opportunistic pathogen which can cause biofilms to grow for instance on plastic surgical implants such as catheters. Unless otherwise stated, the staphylococci were cultured and maintained on Mueller-Hinton Medium (agar and broth) at pH 7.2; cultures were incubated aerobically at 37° C. for 19-20 hours, at pH 7 (±0.2). (b) C. striatum NCTC 764. Corynebacterium striatum is closely related to organisms (aerobic diphtheroids of the genus Corynebacterium) that cause body odour. It was cultured and maintained on Mueller-Hinton medium (agar and broth). All cultures were incubated aerobically at 37° C. for 72 hours, at pH 7 (±0.2). (c) streptococci. The strains tested were S. mutans ATCC 25175 and S. pyogenes ATCC 12344. S. mutans is a Gram-positive, microaerophilic bacterium which plays a significant role in dental caries and in infective endocarditis. Streptococcus pyogenes is associated with skin, soft tissue, burn and wound infections. S. mutans was cultured and maintained on Wilkins-Chalgren Anaerobe medium+1 g/L glucose (agar and broth); it was incubated in air at 37° C. for 48 hours, at pH 7 (±0.2) with 5% carbon dioxide. S. pyogenes was cultured and maintained on Mueller-Hinton medium (broth and agar) and was incubated under the same conditions as S. mutans.
as §4
These samples were then individually sub-cultured on antibiotic-free agar medium, under the incubation conditions described above. Following incubation they were examined visually for microbial growth. […]

[9] = system: C. striatum NCTC 764; assay: Disc diffusion assay (DDA); format: cell-based, Corynebacterium striatum; conditions: 200 μg per disc; single plates
Source text: as §5, with “streptococci.” for “streptococci. The strains tested were S. mutans ATCC 25175 and S. pyogenes ATCC 12344. S. mutans is a Gram-positive, microaerophilic bacterium which plays a significant role in dental caries and in infective endocarditis.”
as §9

Q: What does the source list for `CC(=O)C1=C([O-])C=C2Oc3c(C(C)=O)c(O)c(C)c(O)c3[C@]2(C)C1=O.[Na+]` [Sodium usnate, sodium usnate]?
A: DDA zone diameter, unsupplemented medium [1]: 57.9 mm; MIC [2]: 0.49 µg/mL; MBC [3]: 0.98 µg/mL; MIC [4]: 7.8 µg/mL; MBC [5]: 250 µg/mL; DDA zone diameter [6]: 15.0 mm; MIC [7]: 3.9 µg/mL; MBC [8]: 125 µg/mL; DDA zone diameter [9]: 20.0 mm
